This is an account of results in US9265253B2, “Use of macrocyclic picolinamides as fungicides” (DOW AGROSCIENCES LLC, priority 2013, dated 2016).

Where two headings read alike, the source gives them in different places.

Common to all, as to format: in vivo
In assay [1] the test system is Mycosphaerella graminicola; Anamorph: Septoria tritici. The assay can be described thus: Leaf Blotch of Wheat (SEPTTR) disease control. Conditions: Zymoseptoria tritici; for pest or weed control at 121.5 g/ha: rate 121.5 g/H; for pest or weed control at 100 ppm: rate 100 ppm. The procedure, abridged: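 Preventive or curative tests: first-leaf Yuma wheat, sprayed to run-off, inoculated with S. tritici, dew chamber at 100% humidity, then greenhouse at 20° C. Severity on the first leaf is scored on a 0–100% scale and expressed as % control against untreated plants.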

For assay [2], the system named is Puccinia triticina; Synonym: Puccinia recondite f. Sp. Tritici. The assay can be described thus: Wheat Brown Rust (PUCCRT) disease control. Conditions: Puccinia triticina, topical; for pest or weed control at 121.5 g/ha: rate 121.5 g/H; for pest or weed control at 100 ppm: rate 100 ppm. The gist of the method: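 Brown rust on first-leaf Yuma wheat: spore inoculation before or after spray application (acetone/Triton X-100 solution, or EC with Trycol in track spray), overnight 100% RH at 22 °C, disease developed at 24 °C. Severity scored 0–100% and converted to percent control against untreated.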

The next assay relates to Phakopsora pachyrhizi. In words: Asian Soybean Rust (PHAKPA) disease control. Conditions: Phakopsora pachyrhizi, topical. The procedure, abridged:
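Compounds in acetone diluted with nine volumes water containing 0.011% Tween 20, sprayed to run-off on two-week-old Williams 82 soybean seedlings, inoculated 3 days before or 1 day after treatment. Plants held 24 h in dark dew room at 22 °C, 100% RH, then at 23 °C; disease severity scored on sprayed leaves.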

The subject of assay [3] is Blumeria graminis f. sp. hordei; Synonym: Erysiphe graminis f. sp. hordei. The assay can be described thus: Barley Powdery Mildew (ERYSGH) disease control. As to conditions: Blumeria graminis, 24 h, 1 Day Protectant, read-out: Disease Control ERYSGH 1 DP. The gist of the method: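 Barley seedlings (Harrington) at full first-leaf stage sprayed to run-off with compound in acetone/water (1:9) containing 110 ppm Triton X-100, then inoculated 24 h later by dusting from infected stock plants. Disease developed in greenhouse at 20 °C; severity scored 0–100% and control calculated relative to untreated plants.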

Setting [4] is: 24 h, 1 Day Protectant, read-out: SEPTTR 1 DP disease control.
[5] abbreviates: 72 h, 3 Day Curative, read-out: SEPTTR 3 DC disease control.
Setting [6] is: 24 h, 1 Day Protectant, read-out: PUCCRT 1 DP disease control.
Setting [7] is: 72 h, 3 Day Curative, read-out: PUCCRT 3 DC disease control.
Where [8] appears, read: 24 h, 1 Day Protectant, read-out: Disease Control PHAKPA 1DP.
The mark [9] stands for this setting: 72 h, 3 Day Curative, read-out: Disease Control PHAKPA 3DC.

Consider `COc1ccnc(C(=O)N[C@H]2CCC[C@H](Cc3ccc(F)cc3F)[C@@H](OCC(C)C)[C@H](C)OC2=O)c1OCOC(C)=O` [Compound F145], for which the pest or weed control at 121.5 g/ha in assay [1] (setting [4]), in assay [1] (setting [5]), in assay [2] (setting [6]) and in assay [2] (setting [7]) was 80 to 100% throughout. Besides, the figures for the pest or weed control at 25 ppm with Phakopsora pachyrhizi (setting [8]) and in the assay with Phakopsora pachyrhizi (setting [9]) were 80 to 100% and 0 to 80%, respectively. The pest or weed control at 100 ppm in assay [3] was in the range of 80 to 100%.
As for `C=C[C@H]1CCC[C@H](NC(=O)c2nccc(OC)c2OCOC(C)=O)C(=O)O[C@@H](C)[C@@H]1Oc1ccccc1` [Compound F146], the pest or weed control at 121.5 g/ha in assay [1] (setting [4]), in assay [1] (setting [5]), in assay [2] (setting [6]) and in assay [2] (setting [7]) was 80 to 100% each time. For the same compound, the pest or weed control at 25 ppm in the assay with Phakopsora pachyrhizi (setting [8]) and in the assay with Phakopsora pachyrhizi (setting [9]) was 80 to 100% throughout. In addition, the pest or weed control at 100 ppm in assay [3] fell in the range of 0 to 80%.
Take `COc1ccnc(C(=O)N[C@H]2CCC[C@H](Cc3ccccc3)[C@@H](OCC(C)C)[C@H](C)OC2=O)c1OCOC(=O)C(C)C` [Compound F151]: the pest or weed control at 100 ppm in assay [1] (setting [4]), in assay [1] (setting [5]), in assay [2] (setting [6]), in assay [2] (setting [7]) and in assay [3] was 80 to 100% throughout. In addition, the pest or weed control at 121.5 g/ha in assay [1] (setting [4]), in assay [1] (setting [5]), in assay [2] (setting [6]) and in assay [2] (setting [7]) was 80 to 100% each time. Further, the pest or weed control at 25 ppm in the assay on Phakopsora pachyrhizi (setting [8]) and with Phakopsora pachyrhizi (setting [9]) was 80 to 100% throughout.
As to `COc1ccnc(C(=O)N[C@H]2CCC[C@H](Cc3ccccc3)[C@@H](OCC3CC3)[C@H](C)OC2=O)c1OCOC(=O)C(C)C` [Compound F152], the pest or weed control at 100 ppm in assay [1] (setting [4]), in assay [1] (setting [5]), in assay [2] (setting [6]), in assay [2] (setting [7]) and in assay [3] was 80 to 100% each time. Moreover, the pest or weed control at 121.5 g/ha in assay [1] (setting [4]), in assay [1] (setting [5]), in assay [2] (setting [6]) and in assay [2] (setting [7]) was 80 to 100% throughout. In addition, the pest or weed control at 25 ppm in the assay with Phakopsora pachyrhizi (setting [8]) and in the assay with Phakopsora pachyrhizi (setting [9]) was 80 to 100% in each case.
In the case of `CCCO[C@@H]1[C@@H](CCC(C)C)CCC[C@H](NC(=O)c2nccc(OC)c2OCOC(=O)COCC)C(=O)O[C@H]1C` [Compound F161], the pest or weed control at 100 ppm in assay [1] (setting [4]), in assay [1] (setting [5]), in assay [2] (setting [6]), in assay [2] (setting [7]) and in assay [3] was 80 to 100% in each case. Moreover, the pest or weed control at 121.5 g/ha in assay [1] (setting [4]), in assay [1] (setting [5]), in assay [2] (setting [6]) and in assay [2] (setting [7]) was 80 to 100% in each case. Besides, the pest or weed control at 25 ppm in the assay with Phakopsora pachyrhizi (setting [8]) and in the assay on Phakopsora pachyrhizi (setting [9]) was 80 to 100% throughout.
As for `CCOCC(=O)OCOc1c(OC)ccnc1C(=O)N[C@H]1CCC[C@H](Cc2ccc(F)cc2)[C@@H](OCC2CC2)[C@H](C)OC1=O` [Compound F164], the pest or weed control at 100 ppm in assay [1] (setting [4]), in assay [1] (setting [5]), in assay [2] (setting [6]), in assay [2] (setting [7]) and in assay [3] was 80 to 100% each time. The pest or weed control at 121.5 g/ha in assay [1] (setting [4]) lay in the range of 80 to 100%; in assay [1] (setting [5]), 80 to 100%; in assay [2] (setting [6]), 80 to 100%; in assay [2] (setting [7]), 0 to 80%. For the same compound, the pest or weed control at 25 ppm fell in the range of 80 to 100% in the assay with Phakopsora pachyrhizi (setting [8]) and 0 to 80% in the assay with Phakopsora pachyrhizi (setting [9]).
